{
  "source": "patent US11266642B2",
  "about": "“Small molecule inhibitors of HLA-DR3 binding for treating autoimmune thyroiditis” (ICAHN SCHOOL OF MEDICINE AT MOUNT SINAI, priority 2015, dated 2022)",
  "key": {"[1]": {"tested_on": "T-cell proliferative responses to hTg or Tg.2098", "experiment": "In vivo PO administration in hTg-immunized NOD-DR3 mice (EAT), T-cell proliferation CFSE assay", "set-up": "species or system mouse", "settings": "PO gavage 250 μg on days -2, -1, 5, 6, sacrifice day 21", "from_the_text": "(§1) Mice transgenic for DRB1*0301 were originally generated by G. J Hämmerling and co-workers as previously described [Strauss et al. Immunogenetics 40, 104-108 (1994)]. Briefly, the DR3 (DRA1*0101/DRB1*0301) transgenes were inserted into (C57BL/6×DBA/2) F1 embryos and the progeny were back-crossed to B10.Q mice. The DR3 mice were crossed with I-Aβ knockouts (C57BL/6×129) to obtain mice lacking murine MHC class II and expressing human DR3. The transgenic mouse line was maintained by intercrossing. The background non-MHC genes in the DR3 transgenic line was 50% C57BL/10 genes and 50% contribution from CBA, C57BL/6, and 129 genes. These mice were then back-crossed into NOD background to produce the NOD-DR3 mice [Flynn et al. J Autoimmun, 17, 7-15 (2001)]. The transgene was confirmed to be HLA-DRβ1-Arg74 positive. Mice were bred in a pathogen-free facility (Icahn School of Medicine at Mount Sinai, New York, N.Y.), and expression of HLA-DR3 was tested by PCR using DR3-specific primers: forward primer 5′ CGCTTCGACAGCGAC 3′ (SEQ ID NO:4) and reverse primer 5′ GACAAATCCACACTCCAC 3′ (SEQ ID NO:5). […]\nThree female NOD-DR3 mice (6 to 10 weeks old) were fed with 250 μg of Compound Ia PO using gavage on day (−2) and day (−1), followed by SQ immunization of hTg mixed with CFA on day 0. […] Stimulation index was calculated as before."}, "[2]": {"target": "T1, HLA-DR3 on VAVY cells (HLA-DRβ1-Arg74 positive) (Homo sapiens, UniProt P01903+P01911, A100K/A102G/A103R/A169T/F55Y/I96L/K41T/L162R/M171V/P40S/Q125H/Q178H/Q39Y/R42S/S66N/T106N/T262R/W38E/Y61H)", "T1 construct": "VAVY B-cell line that is homozygous for DR3 (confirmed to contain DRβ1-Arg74); host or cells: VAVY B-cell line", "T1 sequence (P01903 26-254, other chains not shown)": "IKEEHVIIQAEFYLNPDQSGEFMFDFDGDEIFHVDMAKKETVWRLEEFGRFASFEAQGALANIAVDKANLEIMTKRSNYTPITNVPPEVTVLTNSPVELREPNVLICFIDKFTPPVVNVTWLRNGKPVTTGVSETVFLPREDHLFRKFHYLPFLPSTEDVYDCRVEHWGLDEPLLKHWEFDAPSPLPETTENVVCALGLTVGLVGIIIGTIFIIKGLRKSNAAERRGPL", "experiment": "Tg.2098 peptide binding to VAVY cells, flow cytometry", "type": "cell-based", "settings": "0.025 mM Ia, 7 h pre-incubation; 0.5 μM Tg.2098, 24 h; 42.7% without Ia", "experimental": "VAVY cells (European Collection of Cell Cultures) were cultured in RPMI (ATCC, Manassas, Va.) supplied with 10% FBS (Sigma-Aldrich, St. Louis, Mo.), 1% Penicillin-Streptomycin (Corning, N.Y.), 2 mM glutamine (Corning, N.Y.) and […] ciprofloxacin hydrochloride (Hospira, Lake Forest, Ill.). Cells were grown at 37° C., 5% CO2 and passaged 1-2 times a week. Cells expressing DR2 (National Development and Research Institutes, Inc) were cultured using the same conditions as VAVY cells. N-terminal biotinylated peptide Tg.2098 was used to test for binding to VAVY cells which express HLA-DR3 on their surface (HLA-DRβ1-Arg74 positive). APC Streptavidin (BD Biosciences, Franklin Lakes, N.J.) was used to detect the biotinylated peptides. A scrambled peptide of Tg.2098 (scr2098) was used as a negative control. VAVY cells were seeded at 2.5×10^6 cells/mL in a 24-well plate (BD Biosciences) and pre-incubated for 7 hours with 0.025 mM of compound Ia or 40% Captisol (Ligand Pharmaceuticals, Inc, La Jolla, Calif.) [the vehicle used to dissolve test compound in this experiment], before 0.5 μM Tg.2098 was added. After 24 h incubation, cells were stained with PE mouse anti-human HLA-DR (BD Biosciences) and APC Streptavidin to detect binding of the peptide to VAVY cells and the inhibitory effect of Compound Ia. Inhibition was analyzed by flow cytometry. As a negative control, cells expressing HLA-DR2 were pre-incubated with example Ia or 40% Captisol, before biotinylated myelin basic protein (MBP) 87-99 (known binder to HLA-DR2) was added and incubated for 24 hours. HLA-DR2 cells were stained with PE mouse anti-human HLA-DR and APC Streptavidin to detect binding of biotinylated MBP87-99 to DR2 expressing cells and to assess the inhibitory effect of compound Ia on peptide binding. To confirm the ELISA results we performed binding inhibition studies using the VAVY B-cell line that is homozygous for DR3 (confirmed to contain DRβ1-Arg74). […]"}, "[3]": {"tested_on": "T-cell proliferative responses to hTg", "experiment": "In vivo IP administration in hTg-immunized NOD-DR3 mice (EAT), T-cell proliferation CFSE assay", "set-up": "species or system mouse", "settings": "IP 125 μg on days -2, -1, 5, 6; sacrifice day 21; vehicle 2.3 ± 0.5; p=0.0432", "from_the_text": "as §1, with “positive.” for “positive. Mice were bred in a pathogen-free facility (Icahn School of Medicine at Mount Sinai, New York, N.Y.), and expression of HLA-DR3 was tested by PCR using DR3-specific primers: forward primer 5′ CGCTTCGACAGCGAC 3′ (SEQ ID NO:4) and reverse primer 5′ GACAAATCCACACTCCAC 3′ (SEQ ID NO:5).”\nSeven female NOD-DR3 mice (6-10 weeks old) were injected IP with […] Compound Ia on day (−2) and day (−1), followed by SQ immunization of human thyroglobulin (hTg) mixed with CFA on day 0. […] The stimulation index was calculated by using the formula described above: Stimulation index=[% proliferating lymphocytes (hTg, peptide or mitogen-treated)]/[% proliferating lymphocytes (medium-treated)]."}},
  "data": [
    {"smiles": "COc1ccc2cc1Oc1ccc(cc1)C[C@H]1c3c(cc4c(c3Oc3cc5c(cc3OC)CCN(C)[C@@H]5C2)OCO4)CCN1C", "note": "[Compound Ia, cepharanthine]", "values": [
      {"measurement": "Stimulation index, T-cell stimulation in response to hTg", "setting": "[1]; vehicle 1.8 ± 0.2, p=0.0285", "result": "1.0 ± 0.2"},
      {"measurement": "Stimulation index, T-cell stimulation in response to Tg.2098", "setting": "[1]; vehicle 1.9 ± 0.3, p=0.0147", "result": "0.9 ± 0.1"},
      {"measurement": "binding of Tg.2098 to VAVY cells in the presence of Ia", "setting": "[2]", "result": 16.6, "unit": "%"},
      {"measurement": "Stimulation index, T-cell stimulation in response to hTg", "setting": "[3]", "result": "1.3 ± 0.2"}
    ]}
  ]
}
